Data taken from PubChem BioAssay AID330 (DTP/NCI, 2004).
Several values for one entry are separate records, joined by “and”; a condition that tells them apart may be missing. Identical values can stand only once. Toxic doses and inconclusive results are not listed.

System: P388 leukemia ip, CD2F1 mice, survival T/C
Assay: NCI In Vivo Anticancer Drug Screen. Data for tumor model P388 Leukemia (intraperitoneal) in CD2F1 (CDF1) mice
Conditions: endpoint: median survival time, higher = longer survival
Procedure, shortened: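 Mice carrying the transplanted tumor received test compound or vehicle. Survival was recorded in each group, and the value is the treated-group measurement divided by that of the vehicle-treated control group.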

[1] = dose: 25.0 mg/kg/injection, schedule: Q01DX009 (ip), vehicle: saline with Tween-80
[2] = dose: 50.0 mg/kg/injection, schedule: Q01DX009 (ip), vehicle: saline with Tween-80

SMILES: CC(=O)CC1CCCC(C#N)N1 (configuration not stated)
- T/C (dose: 12.5 mg/kg/injection, schedule: Q01DX005 (ip), vehicle: saline): 97 % of control
- T/C (dose: 25.0 mg/kg/injection, schedule: Q01DX005 (ip), vehicle: saline): 101 % of control
- T/C (dose: 50.0 mg/kg/injection, schedule: Q01DX005 (ip), vehicle: saline): 100 % of control and 98 % of control

SMILES: Cn1nc(-c2ccccc2)c(-c2ccccc2)c(C#N)c1=O
- T/C (dose: 25.0 mg/kg/injection, schedule: Q04DX002 (ip), vehicle: distilled water + Tween-80): 109 % of control
- T/C (dose: 50.0 mg/kg/injection, schedule: Q04DX002 (ip), vehicle: distilled water + Tween-80): 102 % of control
- T/C (dose: 100.0 mg/kg/injection, schedule: Q04DX002 (ip), vehicle: distilled water + Tween-80): 101 % of control
- T/C (dose: 200.0 mg/kg/injection, schedule: Q04DX002 (ip), vehicle: distilled water + Tween-80): 100 % of control

SMILES: O=c1[nH]nc(SCc2c(Cl)cccc2Cl)c(=O)[nH]1
- T/C (dose: 25.0 mg/kg/injection, schedule: Q01DX005 (ip), vehicle: Klucel (hydroxypropylcellulose) (HPC)): 95 % of control
- T/C (dose: 50.0 mg/kg/injection, schedule: Q01DX005 (ip), vehicle: Klucel (hydroxypropylcellulose) (HPC)): 93 % of control
- T/C (dose: 100.0 mg/kg/injection, schedule: Q01DX005 (ip), vehicle: Klucel (hydroxypropylcellulose) (HPC)): 111 % of control
- T/C (dose: 200.0 mg/kg/injection, schedule: Q01DX005 (ip), vehicle: Klucel (hydroxypropylcellulose) (HPC)): 95 % of control

SMILES: C=CC1OCCC(C)O1 (configuration not stated)
- T/C (dose: 60.0 mg/kg/injection, schedule: Q01DX005 (ip), vehicle: saline): 99 % of control
- T/C (dose: 120.0 mg/kg/injection, schedule: Q01DX005 (ip), vehicle: saline): 100 % of control
- T/C (dose: 240.0 mg/kg/injection, schedule: Q01DX005 (ip), vehicle: saline): 97 % of control

SMILES: O=C(NN=c1c(=O)c2ccccc2c1=O)c1ccncc1
- T/C (dose: 60.0 mg/kg/injection, schedule: Q01DX005 (ip), vehicle: saline with Tween-80): 112 % of control
- T/C (dose: 120.0 mg/kg/injection, schedule: Q01DX005 (ip), vehicle: saline with Tween-80): 119 % of control
- T/C (dose: 240.0 mg/kg/injection, schedule: Q01DX005 (ip), vehicle: saline with Tween-80): 119 % of control

SMILES: COc1ccc(CNSC(c2ccccc2)(c2ccccc2)c2ccccc2)cc1
- T/C (dose: 50.0 mg/kg/injection, schedule: Q01DX005 (ip), vehicle: saline with Tween-80): 98 % of control
- T/C (dose: 100.0 mg/kg/injection, schedule: Q01DX005 (ip), vehicle: saline with Tween-80): 101 % of control
- T/C (dose: 200.0 mg/kg/injection, schedule: Q01DX005 (ip), vehicle: saline with Tween-80): 97 % of control

SMILES: O=C(c1cccnc1)c1cc(-c2ccccn2)c(=O)n2ccccc12
- T/C [1]: 99 % of control and 104 % of control
- T/C [2]: 107 % of control and 109 % of control and 88 % of control
- T/C (dose: 100.0 mg/kg/injection, schedule: Q01DX009 (ip), vehicle: saline with Tween-80): 104 % of control and 107 % of control and 89 % of control
- T/C (dose: 200.0 mg/kg/injection, schedule: Q01DX009 (ip), vehicle: saline with Tween-80): 90 % of control

SMILES: O=C(c1cc2c(cc1[N+](=O)[O-])OCO2)N1CCc2ccccc21
- T/C (dose: 3.13 mg/kg/injection, schedule: Q01DX009 (ip), vehicle: saline with Tween-80): 99 % of control
- T/C (dose: 6.25 mg/kg/injection, schedule: Q01DX009 (ip), vehicle: saline with Tween-80): 99 % of control
- T/C (dose: 12.5 mg/kg/injection, schedule: Q01DX009 (ip), vehicle: saline with Tween-80): 96 % of control
- T/C (dose: 25.0 mg/kg/injection, schedule: Q01DX009 (ip), vehicle: other): 99 % of control
- T/C [1]: 94 % of control
- T/C (dose: 50.0 mg/kg/injection, schedule: Q01DX009 (ip), vehicle: other): 100 % of control
- T/C (dose: 100.0 mg/kg/injection, schedule: Q01DX009 (ip), vehicle: other): 107 % of control
- T/C (dose: 200.0 mg/kg/injection, schedule: Q01DX009 (ip), vehicle: other): 89 % of control

SMILES: CC(C)NCC(O)COc1cccc2[nH]c3ccccc3c12 (configuration not stated)
- T/C [1]: 99 % of control
- T/C [2]: 96 % of control

SMILES: CC(CCCN(CCCl)CCCl)Nc1ccnc2cc(Cl)ccc12 (configuration not stated)
- T/C (dose: 0.12 mg/kg/injection, schedule: Q01DX009 (ip), vehicle: saline + alcohol): 100 % of control
- T/C (dose: 0.5 mg/kg/injection, schedule: Q01DX009 (ip), vehicle: saline sonified): 155 % of control
- T/C (dose: 0.66 mg/kg/injection, schedule: Q01DX009 (ip), vehicle: saline): 159 % of control
- T/C (dose: 1.0 mg/kg/injection, schedule: Q01DX009 (ip), vehicle: saline sonified): 155 % of control
- T/C (dose: 1.5 mg/kg/injection, schedule: Q01DX009 (ip), vehicle: saline): 159 % of control
- T/C (dose: 2.0 mg/kg/injection, schedule: Q01DX009 (ip), vehicle: saline sonified): 105 % of control

SMILES: C=C(C)[C@H]1C[C@@H]2O[C@]2(C)[C@@H](O)C1
- T/C (dose: 100.0 mg/kg/injection, schedule: Q04DX002 (ip), vehicle: saline): 94 % of control
- T/C (dose: 200.0 mg/kg/injection, schedule: Q04DX002 (ip), vehicle: saline): 102 % of control
- T/C (dose: 400.0 mg/kg/injection, schedule: Q04DX002 (ip), vehicle: saline): 96 % of control

SMILES: O=C(CC(=O)c1ccc(Cl)cc1)c1ccc(Cl)cc1
- T/C (dose: 50.0 mg/kg/injection, schedule: Q04DX003 (ip), vehicle: saline with Tween-80): 100 % of control
- T/C (dose: 100.0 mg/kg/injection, schedule: Q04DX003 (ip), vehicle: saline with Tween-80): 100 % of control
- T/C (dose: 200.0 mg/kg/injection, schedule: Q04DX003 (ip), vehicle: saline with Tween-80): 98 % of control
- T/C (dose: 400.0 mg/kg/injection, schedule: Q04DX003 (ip), vehicle: saline with Tween-80): 93 % of control
